Experimental data from US10221163B2 (priority 2015, dated 2019).
Like-named read-outs stand apart in the source and are kept apart here.

Key:
[1] = molecular target: IMP-1 (Serratia marcescens, UniProt P52699); test: biochemical; type: biochemical; details: fluorescence assay, CCF2-FA substrate, 2 pM enzyme, 2 hours at 25° C.; read-out: IMP-1 IC50
In short: (§1)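 Class B activity is measured in the presence of compound by fluorescence with CCF2-FA after a 2-hour incubation at 25° C. IC50 is taken from a 4-parameter fit of semi-logarithmic dose-response data.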

[2] = molecular target: NDM-1 (Klebsiella pneumoniae, UniProt C7C422); test: biochemical; type: biochemical; details: fluorescence assay, CCF2-FA substrate, 1 pM enzyme, 2 hours at 25° C.; read-out: NDM-1 IC50
In short: as §1

[3] = molecular target: VIM-1 (Pseudomonas aeruginosa (strain ATCC 15692 / DSM 22644 / CIP 104116 / JCM 14847 / LMG 12228 / 1C / PRS 101 / PAO1), UniProt A0A0F7KYQ8); test: biochemical; details: CCF2-FA substrate, 30 pM enzyme, 2 hours at 25° C.
In short: as §1

[4] = system: Escherichia coli expressing NDM-1 (CLB30005, CLB30016); type: cell-based; details: with imipenem 1 μg/ml; 95% inhibition of bacterial growth
In short: (§2)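 Clinical strains grown overnight on blood agar at 35°C, colonies suspended in saline, diluted 1:100 into 1.1×CAMHB. Test compound titrated with imipenem at 1 μg/ml; incubated 22–24 h at 35°C, growth read by absorbance.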

[5] = system: Klebsiella pneumoniae expressing VIM-1 (IHMA599644); type: cell-based; details: with imipenem 1 μg/ml; 95% inhibition of bacterial growth
In short: as §2

[6] = system: Serratia marcescens expressing IMP-1 (CL5741); type: cell-based; details: with imipenem 1 μg/ml; 95% inhibition of bacterial growth
In short: as §2

[7] = system: Pseudomonas aeruginosa efflux+ (MB9798), IMP-1; type: cell-based; details: concentration restoring susceptibility to imipenem at 2 μg/mL in the presence of a class A, C, D serine β-lactamase inhibitor closely related to relebactam
In short: (§3)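 Microbroth MIC tests in PAO1-background strains with fixed imipenem and/or ceftazidime, usually at the CLSI breakpoint, plus fixed class A/C β-lactamase inhibitor against AmpC. MBL inhibitor titrated; concentration restoring susceptibility recorded and compared as fold difference between efflux+ MB9798 and efflux− MB9799.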

[8] = system: Pseudomonas aeruginosa efflux− (MB9799), IMP-1; type: cell-based; details: concentration restoring susceptibility to imipenem at 2 μg/mL in the presence of a class A, C, D serine β-lactamase inhibitor closely related to relebactam
In short: as §3

[9] = system: Pseudomonas aeruginosa MB9798 vs MB9799; details: ratio MITC95 PA_9798/MITC95 PA_9799
In short: as §3

[10] = fluorescence assay, read-out: VIM-1 IC50

Sequence of IMP-1 (P52699 whole entry, looked up, species assumed): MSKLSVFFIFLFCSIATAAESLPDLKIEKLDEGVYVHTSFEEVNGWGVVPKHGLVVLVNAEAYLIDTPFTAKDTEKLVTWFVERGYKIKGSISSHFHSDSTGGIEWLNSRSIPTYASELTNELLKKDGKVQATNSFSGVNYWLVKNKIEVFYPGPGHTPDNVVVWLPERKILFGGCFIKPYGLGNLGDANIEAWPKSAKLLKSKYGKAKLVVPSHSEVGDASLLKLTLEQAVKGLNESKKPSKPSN
Sequence of NDM-1 (C7C422 whole entry, looked up, species assumed): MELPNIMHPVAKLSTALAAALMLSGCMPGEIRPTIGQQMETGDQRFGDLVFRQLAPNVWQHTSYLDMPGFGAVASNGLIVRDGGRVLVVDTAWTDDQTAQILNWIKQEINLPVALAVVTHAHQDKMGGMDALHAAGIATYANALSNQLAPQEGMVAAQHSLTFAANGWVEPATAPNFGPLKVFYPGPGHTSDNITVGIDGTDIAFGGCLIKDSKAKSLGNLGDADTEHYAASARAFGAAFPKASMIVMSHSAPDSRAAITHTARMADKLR

Structure (SMILES) | IC50 [1] [pM] | IC50 [2] [pM] | IC50 [3, 10] [pM] | Escherichia coli expressing NDM-1 (CLB30016) MITC95 [4] [µM] | Klebsiella pneumoniae expressing VIM-1 (IHMA599644) MITC95 [5] [µM] | Serratia marcescens expressing IMP-1 (CL5741) MITC95 [6] [µM] | P. aeruginosa expressing IMP-1, efflux + (MB9798) MITC95 [7] [µM] | P. aeruginosa expressing IMP-1, efflux − (MB9799) MITC95 [8] [µM] | Efflux ratio [9] | IC50 ([3]; VIM-1 IC50, fluorescence assay) [pM]
Nc1nc2c(-c3ccc(S(=O)(=O)N4CC5(CCNC5)C4)c(S(N)(=O)=O)c3-c3nnn[nH]3)cccc2s1 [Example 48, 3-(2-amino-1,3-benzothiazol-4-yl)-6-(2,6-diazaspiro[3.4]oct-2-ylsulfonyl)-2-(1H-tetrazol-5-yl)benzenesulfonamide] | 951 | 258 | 490 | 6.25 | 3.125 | 3.125 | 1.563 | 1.563 | 1.00 | 
Nc1nc2c(-c3ccc(S(=O)(=O)NCCC(N)C(F)(F)F)c(S(N)(=O)=O)c3-c3nnn[nH]3)cccc2s1 (stereo not drawn) [Example 49, 4-(2-amino-1,3-benzothiazol-4-yl)-N1-(3-amino-4,4,4-trifluorobutyl)-3-(1H-tetrazol-5-yl)benzene-1,2-disulfonamide] | 413 | 67.3 | 328 | 25 | 25 | 12.5 | 50 | 6.25 | 8.00 | 
Nc1nc2c(-c3ccc(S(=O)(=O)N[C@H]4CO[C@H]5[C@H]4OC[C@H]5O)c(S(N)(=O)=O)c3-c3nnn[nH]3)cccc2s1 [Example 50, 2-({[4-(2-amino-1,3-benzothiazol-4-yl)-2-sulfamoyl-3-(1H-tetrazol-5-yl)phenyl]sulfonyl}amino)-1,4:3,6-dianhydro-2-deoxy-D-allitol] | 263 | 40.8 |  | 25 | 25 | 12.5 | 12.5 | 6.25 | 2.00 | 250
CC(CN1CCOCC1)NS(=O)(=O)c1ccc(-c2cccc3sc(N)nc23)c(-c2nnn[nH]2)c1S(N)(=O)=O (stereo not drawn) [Example 51, 4-(2-amino-1,3-benzothiazol-4-yl)-N1-(1-methyl-2-morpholin-4-ylethyl)-3-(1H-tetrazol-5-yl)benzene-1,2-disulfonamide] | 393 | 97 | 441 | 25 | 25 | 12.5 | 25 | 6.25 | 4.00 | 
CN(C)CCCN(C)S(=O)(=O)c1ccc(-c2cccc3sc(N)nc23)c(-c2nnn[nH]2)c1S(N)(=O)=O [Example 52, 4-(2-amino-1,3-benzothiazol-4-yl)-N1-[3-(dimethylamino)propyl]-N~1~-methyl-3-(1H-tetrazol-5-yl)benzene-1,2-disulfonamide] | 5940 | 15300 | 25300 | 12.5 | 50 | 3.125 | 6.25 | 3.125 | 2.00 | 
CN1CCC(NS(=O)(=O)c2ccc(-c3cccc4sc(N)nc34)c(-c3nnn[nH]3)c2S(N)(=O)=O)C1 (stereo not drawn) [Example 53, 4-(2-amino-1,3-benzothiazol-4-yl)-N1-(1-methylpyrrolidin-3-yl)-3-(1H-tetrazol-5-yl)benzene-1,2-disulfonamide] | 298 | 41.5 | 192 | 3.125 | 3.125 | 1.563 | 1.563 | 1.563 | 1.00 | 
CN1CCC(N(C)S(=O)(=O)c2ccc(-c3cccc4sc(N)nc34)c(-c3nnn[nH]3)c2S(N)(=O)=O)C1 (stereo not drawn) [Example 54, 4-(2-amino-1,3-benzothiazol-4-yl)-N1-methyl-N1-(1-methylpyrrolidin-3-yl)-3-(1H-tetrazol-5-yl)benzene-1,2-disulfonamide] | 1930 | 190 | 3640 | 6.25 | 6.25 | 3.125 | 6.25 | 3.125 | 2.00 | 
Nc1nc2c(-c3ccc(S(=O)(=O)N4CCC(N)(CO)C4)c(S(N)(=O)=O)c3-c3nnn[nH]3)cccc2s1 (stereo not drawn) [Example 55, 3-(2-amino-1,3-benzothiazol-4-yl)-6-{[3-amino-3-(hydroxymethyl)pyrrolidin-1-yl]sulfonyl}-2-(1H-tetrazol-5-yl)benzenesulfonamide] | 860 | 510 | 1460 | 3.125 | 6.25 | 3.125 | 3.125 | 3.125 | 1.00 | 
CCC1(NS(=O)(=O)c2ccc(-c3cccc4sc(N)nc34)c(-c3nnn[nH]3)c2S(N)(=O)=O)CCNC1 (stereo not drawn) [Example 56, 4-(2-amino-1,3-benzothiazol-4-yl)-N1-(3-ethylpyrrolidin-3-yl)-3-(1H-tetrazol-5-yl)benzene-1,2-disulfonamide] | 342 | 51.9 | 245 | 1.563 | 3.125 | 3.125 | 1.563 | 1.563 | 1.00 | 
CC1(NS(=O)(=O)c2ccc(-c3cccc4sc(N)nc34)c(-c3nnn[nH]3)c2S(N)(=O)=O)CCCNC1 (stereo not drawn) [Example 57, 4-(2-amino-1,3-benzothiazol-4-yl)-N1-(3-methylpiperidin-3-yl)-3-(1H-tetrazol-5-yl)benzene-1,2-disulfonamide] | 554 | 85.3 | 355 | 3.125 | 3.125 | 6.25 | 3.125 | 3.125 | 1.00 | 
Nc1nc2c(-c3ccc(S(=O)(=O)N[C@@H]4CNC[C@@H]4F)c(S(N)(=O)=O)c3-c3nnn[nH]3)cccc2s1 [Example 58, 4-(2-amino-1,3-benzothiazol-4-yl)-N1-[(3R,4S)-4-fluoropyrrolidin-3-yl]-3-(1H-tetrazol-5-yl)benzene-1,2-disulfonamide] | 759 | 68.6 | 404 | 1.563 | 3.125 | 1.563 | 1.563 | 1.563 | 1.00 | 
Nc1nc2c(-c3ccc(S(=O)(=O)N[C@H]4CNC[C@@H]4F)c(S(N)(=O)=O)c3-c3nnn[nH]3)cccc2s1 [Example 59, 4-(2-amino-1,3-benzothiazol-4-yl)-N1-[(3S,4S)-4-fluoropyrrolidin-3-yl]-3-(1H-tetrazol-5-yl)benzene-1,2-disulfonamide] | 558 | 35.7 | 309 | 1.563 | 3.125 | 1.563 | 1.563 | 1.563 | 1.00 | 
